Patent US11919905B2, “Substituted benzo[f]imidazo[1,2-a][1,4]diazepines as anesthetics” (HANGZHOU ADAMERCK PHARMLABS INC., priority 2017, dated 2024)

How the values were obtained:
[1] = background statement; cited from earlier work
[2] = tested on: ICR mice; assay: Effective dose and lethal dose of intravenous administration in mice; type: in vivo
Procedure: ICR mice (males, 18-25 g) were randomly grouped and were fast given a single bolus of different doses of test drug via the tail vein, and the lowest dose causing the righting reflex to disappear (effective dose) and the dose causing animal death (lethal dose) were recorded, and the treatment windows (lethal dose/effective dose) were calculated.

[3] = tested on: ICR mice; assay: Disappearance of righting reflex in mice induced by drugs (single i.v. bolus); type: in vivo; conditions: 100 mg/kg single bolus via tail vein, male ICR mice
Procedure: After ICR mice (male, 18-25 g) were fast injected with the same dose (100 mg/kg) of the test drug in a single bolus via the tail vein, the incubation period and the duration of disappearance of the righting reflex in mice were recorded. Wherein, the incubation period refers to the time from the start of administration to the disappearance of the animal's righting reflex, and the duration refers to the time from the disappearance of the righting reflex to the recovery.

[4] = tested on: mice; assay: Multiple (10 times) i.v. administrations: autonomous activity of mice; type: in vivo
Procedure: Animals in each group were given the corresponding drug solution multiple times by the tail vein injection (i.v.) in accordance with the corresponding group, 0.1 ml per mouse each time, for ten times of consecutive injections (the administration group mice were injected when the righting reflex was recovered). Then the autonomous activity of mice was measured immediately and the recording time was 50 minutes. Data were expressed as mean±standard deviation.

[5] = tested on: mice; assay: Single i.v. administration: autonomous activity of mice; type: in vivo
Procedure: Animals in each group were tested for their autonomous activities, each mouse for 10 minutes. After that, the animals in each group were given a single corresponding drug solution by the tail vein injection (i.v.) according to the corresponding group, 0.1 ml per 10 g body weight, and the autonomous activity of the mice was measured immediately after the administration, and the recording time was 50 min. Data were expressed as mean±standard deviation. Wherein, the dosage of propofol was 20 mg/kg.

[6] = tested on: mice; assay: Multiple (9 times) i.v. administrations: duration of disappearance of righting reflex in mice; type: in vivo
Procedure: Animals in each group were given the corresponding drug solution multiple times by the tail vein injection (i.v.) in accordance with the corresponding group, 0.1 ml per mouse each time, for 9 times of consecutive injections (the administration group mice were injected when the righting reflex was recovered). The durations of each disappearance of righting reflex were recorded, and the data was expressed as an average.

[7] = single bolus via tail vein, male ICR mice
[8] = 50 mg/kg i.v., administration 1
[9] = 50 mg/kg i.v., administration 2
[10] = 50 mg/kg i.v., administration 3
[11] = 50 mg/kg i.v., administration 4
[12] = 50 mg/kg i.v., administration 5
[13] = 50 mg/kg i.v., administration 6
[14] = 50 mg/kg i.v., administration 7
[15] = 50 mg/kg i.v., administration 8
[16] = 50 mg/kg i.v., administration 9
[17] = 75 mg/kg i.v., administration 1
[18] = 75 mg/kg i.v., administration 2
[19] = 75 mg/kg i.v., administration 3
[20] = 75 mg/kg i.v., administration 4
[21] = 75 mg/kg i.v., administration 5
[22] = 75 mg/kg i.v., administration 6
[23] = 75 mg/kg i.v., administration 7
[24] = 75 mg/kg i.v., administration 8
[25] = 75 mg/kg i.v., administration 9
[26] = 100 mg/kg i.v., administration 1
[27] = 100 mg/kg i.v., administration 2
[28] = 100 mg/kg i.v., administration 3
[29] = 100 mg/kg i.v., administration 4
[30] = 100 mg/kg i.v., administration 5
[31] = 100 mg/kg i.v., administration 6
[32] = 100 mg/kg i.v., administration 7
[33] = 100 mg/kg i.v., administration 8
[34] = 100 mg/kg i.v., administration 9
[35] = 20 mg/kg i.v., administration 1
[36] = 20 mg/kg i.v., administration 2
[37] = 20 mg/kg i.v., administration 3
[38] = 20 mg/kg i.v., administration 4
[39] = 20 mg/kg i.v., administration 5
[40] = 20 mg/kg i.v., administration 6
[41] = 20 mg/kg i.v., administration 7
[42] = 20 mg/kg i.v., administration 8
[43] = 20 mg/kg i.v., administration 9

## COC(=O)CC[C@@H]1N=C(c2ccccn2)c2cc(Br)ccc2-n2c(C)cnc21.Cc1ccc(S(=O)(=O)O)cc1 [Remimazolam (p-toluenesulfonate), Remimazolam, reference compound]
[1]
  side effects in preclinical animal experiments: limb jitters, head tilting, opisthotonus
[2]; [7]
  Effective dose (lowest dose causing the righting reflex to disappear): 60 mg/kg
  Lethal dose (dose causing animal death): 220 mg/kg
  Treatment window (lethal dose/effective dose): 3.6
[3]
  Duration (time from disappearance of righting reflex to recovery): 9.43 min
  Incubation period (time from start of administration to disappearance of righting reflex): 0.73 min

## COC(=O)CC[C@@H]1N=C(c2ccccn2)c2cc(Br)ccc2-n2c(C)cnc21.O=S(=O)(O)c1ccccc1 [Remimazolam (besylate), Remimazolam, reference compound]
[1]
  side effects in preclinical animal experiments: limb jitters, head tilting, opisthotonus
[2]; [7]
  Effective dose (lowest dose causing the righting reflex to disappear): 60 mg/kg
  Lethal dose (dose causing animal death): 280 mg/kg
  Treatment window (lethal dose/effective dose): 4.6
[3]
  Duration (time from disappearance of righting reflex to recovery): 10.61 min
  Incubation period (time from start of administration to disappearance of righting reflex): 0.64 min

## COC(=O)CC[C@@H]1N=C(c2ccccn2)c2cc(F)c(C)cc2-n2c(C)cnc21.Cc1ccc(S(=O)(=O)O)cc1 [Compound 1-2]
[4]; 10 consecutive i.v. injections, 50 mg/kg
  time after administration until autonomous activity returned to normal levels: 15 to 20 min
[4]; 10 consecutive i.v. injections, 100 mg/kg, test period 50 minutes
  return of autonomous activity to normal levels: did not return to normal levels during the test period
[4]; multiple i.v. administrations, vs propofol
  recovery of the number of autonomous activities and the rest time after multiple administrations: better than that of propofol
[5]; single i.v. 50 mg/kg (low-dose group)
  time after administration until autonomous activity returned to normal level: 15 min
[5]; single i.v. 50 mg/kg-100 mg/kg, within 10 minutes of injection
  total distance of autonomous activity compared with blank group: significantly lower than that of the blank group
[5]; single i.v. 75 mg/kg (medium-dose group)
  time after administration until autonomous activity returned to normal level: 35 min
[5]; single i.v. 100 mg/kg (high-dose group), 50 min test period
  autonomous activity compared with blank group: consistently lower than that of the blank group during the test period
[2]; Mus musculus, iv, single bolus via tail vein, male ICR mice, read-out: Effective dose (lowest dose causing the righting reflex to disappear)
  minimal effective dose: 40 mg/kg
[2]; mice, i.v.
  effective dose reduced, compared to remimazolam (p-toluenesulfonate): 33.3%
  lethal dose increased, compared to remimazolam (p-toluenesulfonate): 64%
  treatment window increased, compared to remimazolam (p-toluenesulfonate): 2.5 times
[2]; [7]
  Lethal dose (dose causing animal death): 360 mg/kg
  Treatment window (lethal dose/effective dose): 9
[6]; [8]
  Percentage of extension of righting reflex disappearance: 100%
  righting reflex disappearance time: 2.5 min
[6]; [9]
  Percentage of extension of righting reflex disappearance: 179%
  righting reflex disappearance time: 4.4 min
[6]; [10]
  Percentage of extension of righting reflex disappearance: 192%
  righting reflex disappearance time: 4.8 min
[6]; [11]
  Percentage of extension of righting reflex disappearance: 227%
  righting reflex disappearance time: 5.6 min
[6]; [12]
  Percentage of extension of righting reflex disappearance: 237%
  righting reflex disappearance time: 5.9 min
[6]; [13]
  Percentage of extension of righting reflex disappearance: 208%
  righting reflex disappearance time: 5.2 min
[6]; [14]
  Percentage of extension of righting reflex disappearance: 268%
  righting reflex disappearance time: 6.6 min
[6]; [15]
  Percentage of extension of righting reflex disappearance: 260%
  righting reflex disappearance time: 6.5 min
[6]; [16]
  Percentage of extension of righting reflex disappearance: 268%
  righting reflex disappearance time: 6.6 min
[6]; 75 mg/kg dose group, after 6-7 administrations, vs propofol 20 mg/kg
  disappearance time of righting reflex as share of that of the propofol group: 65-70%
[6]; [17]
  Percentage of extension of righting reflex disappearance: 100%
  righting reflex disappearance time: 5.3 min
[6]; [18]
  Percentage of extension of righting reflex disappearance: 128%
  righting reflex disappearance time: 6.7 min
[6]; [19]
  Percentage of extension of righting reflex disappearance: 159%
  righting reflex disappearance time: 8.4 min
[6]; [20]
  Percentage of extension of righting reflex disappearance: 173%
  righting reflex disappearance time: 9.1 min
[6]; [21]
  Percentage of extension of righting reflex disappearance: 194%
  righting reflex disappearance time: 10.2 min
[6]; [22]
  Percentage of extension of righting reflex disappearance: 219%
  righting reflex disappearance time: 11.5 min
[6]; [23]
  Percentage of extension of righting reflex disappearance: 231%
  righting reflex disappearance time: 12.1 min
[6]; [24]
  Percentage of extension of righting reflex disappearance: 211%
  righting reflex disappearance time: 11.1 min
[6]; [25]
  Percentage of extension of righting reflex disappearance: 211%
  righting reflex disappearance time: 11.1 min
[6]; [26]
  Percentage of extension of righting reflex disappearance: 100%
  righting reflex disappearance time: 8.9 min
[6]; [27]
  Percentage of extension of righting reflex disappearance: 121%
  righting reflex disappearance time: 10.8 min
[6]; [28]
  Percentage of extension of righting reflex disappearance: 154%
  righting reflex disappearance time: 13.8 min
[6]; [29]
  Percentage of extension of righting reflex disappearance: 177%
  righting reflex disappearance time: 15.8 min
[6]; [30]
  Percentage of extension of righting reflex disappearance: 181%
  righting reflex disappearance time: 16.2 min
[6]; [31]
  Percentage of extension of righting reflex disappearance: 240%
  righting reflex disappearance time: 21.5 min
[6]; [32]
  Percentage of extension of righting reflex disappearance: 234%
  righting reflex disappearance time: 20.9 min
[6]; [33]
  Percentage of extension of righting reflex disappearance: 238%
  righting reflex disappearance time: 21.2 min
[6]; [34]
  Percentage of extension of righting reflex disappearance: 236%
  righting reflex disappearance time: 21.1 min
[6]; each dose group vs propofol group
  accumulation effect (prolonged rate of righting reflex disappearance time after multiple administrations): lower than that of propofol
[6]; i.v., 50-100 mg/kg
  dose dependence of duration of righting reflex disappearance: dose-dependent
[6]; repeated i.v. administration, each dose group
  number of consecutive administrations after which duration of righting reflex disappearance reached steady state: 5-6
[3]
  Duration (time from disappearance of righting reflex to recovery): 6.02 min
  Incubation period (time from start of administration to disappearance of righting reflex): 0.52 min

## CC(C)c1cccc(C(C)C)c1O [Propofol, reference compound]
[5]; single i.v. 20 mg/kg
  time after administration at which mice were awake: 5 to 10 min
  time after administration until autonomic activities basically recovered: 15 min
[6]; [35]
  Percentage of extension of righting reflex disappearance: 100%
  righting reflex disappearance time: 4.0 min
[6]; [36]
  Percentage of extension of righting reflex disappearance: 144%
  righting reflex disappearance time: 5.8 min
[6]; [37]
  Percentage of extension of righting reflex disappearance: 259%
  righting reflex disappearance time: 10.4 min
[6]; [38]
  Percentage of extension of righting reflex disappearance: 300%
  righting reflex disappearance time: 12.1 min
[6]; [39]
  Percentage of extension of righting reflex disappearance: 292%
  righting reflex disappearance time: 11.7 min
[6]; [40]
  Percentage of extension of righting reflex disappearance: 378%
  righting reflex disappearance time: 15.2 min
[6]; [41]
  Percentage of extension of righting reflex disappearance: 439%
  righting reflex disappearance time: 17.6 min
[6]; [42]
  Percentage of extension of righting reflex disappearance: 404%
  righting reflex disappearance time: 16.2 min
[6]; [43]
  Percentage of extension of righting reflex disappearance: 426%
  righting reflex disappearance time: 17.1 min
